According to paper PMC10821124, “Dimeric 3,5-Bis(benzylidene)-4-piperidones: Tumor-Selective Cytotoxicity and Structure-Activity Relationships” (Medicines, 2024):

Key:
[1] = test system: human oral squamous cell carcinoma HSC-2 cells; assay: Cytotoxicity, MTT method, HSC-2 cells; type: cell-based; details: for CC50: Homo sapiens, HSC-2, 48 h, MTT, mean ± SD, read-out: CC50 HSC-2; for SI (selectivity index) HSC-2: average CC50 non-malignant cells / CC50 HSC-2
Description: (§1) Human promyelocytic leukemia [HL-60 (RCB3683)] (purchased from Riken Cell Bank, Tsukuba, Japan) was cultured at 37 °C in RPMI1640 medium (Fujifilm Wako Pure Chemical Co., Osaka, Japan) supplemented with 10% heat (56 °C, 30 min) inactivated FBS (Sigma-Aldrich Inc. St. Louis, MO, USA), 100 U/mL penicillin G, and 100 µg/mL streptomycin sulfate in a humidified 5% CO2 incubator (MCO-170 AICUVD-P, Panasonic Healthcare Co., Ltd., Gunma, Japan). Human oral squamous cell carcinoma (OSCC) cell lines derived from tongue [HSC-2 (RCB1945), HSC-3 (RCB1975), HSC-4 (RCB1902)] (Riken Cell Bank), and human normal oral cells (gingival fibroblasts, HGF; pulp cell, HPC; periodontal ligament fibroblast, HPLF), established from the first premolar extracted tooth in the lower jaw and periodontal tissues of a child, according to the guidelines of Meikai University Ethic Committee (No. A0808), were cultured in DMEM medium (Fujifilm Wako Pure Chemical Co.) supplemented with 10% FBS and antibiotics. The compounds in Series 2–4 were evaluated against HL-60, HSC-2, HSC-3, HSC-4, HGF, HPC, and HPLF cells based on a literature procedure, as described previously. In brief, near confluent cells were incubated in triplicate for 48 h at 37 °C with different concentrations ([…], 6.3, 12.5, 25, 50, 100 µM) of the compounds; then, viable cell numbers were measured using the MTT method. From the dose–response curve, a 50% cytotoxic concentration (CC50) was determined. All samples were dissolved in dimethylsulfoxide (DMSO). The toxicity of DMSO alone was calculated and subtracted. The CC50 values were determined from dose–response curves.

[2] = Cytotoxicity, MTT method, HPC non-malignant cells; type: cell-based, human; details: human, pulp cells (HPC), non-malignant, mean ± SD
Description: as §1

[3] = test system: human promyelocytic leukemia HL-60 cells; assay: Cytotoxicity, MTT method, HL-60 cells; type: cell-based; details: for CC50: Homo sapiens, HL-60, 48 h, MTT, mean ± SD, read-out: CC50 HL-60; for SI (selectivity index) HL-60: average CC50 non-malignant cells / CC50 HL-60
Description: as §1

[4] = Cytotoxicity, average over the three human normal cells; type: cell-based; details: human, average of HGF, HPC, HPLF; read-out: AVE CC50, human normal cells
Description: as §1

[5] = test system: human tumour cell lines HL-60, HSC-2, HSC-3, HSC-4; assay: Cytotoxicity, average over the four human tumour cell lines; type: cell-based; details: for CC50: Homo sapiens, average of HL-60, HSC-2, HSC-3, HSC-4, read-out: AVE. CC50, human tumour cell lines; for AVE SI: average of the four SI values; for PSE (potency-selectivity expression): product of reciprocal of average CC50 (neoplastic cells) and average SI times 100; for CC50 values in all four bioassays (range in words): HL-60, HSC-2, HSC-3, HSC-4
Description: as §1

[6] = Cytotoxicity, MTT method, HGF non-malignant cells; type: cell-based, human; details: human, gingival fibroblasts (HGF), non-malignant, mean ± SD
Description: as §1

[7] = test system: human oral squamous cell carcinoma HSC-3 cells; assay: Cytotoxicity, MTT method, HSC-3 cells; type: cell-based; details: for CC50: Homo sapiens, HSC-3, 48 h, MTT, mean ± SD, read-out: CC50 HSC-3; for SI (selectivity index) HSC-3: average CC50 non-malignant cells / CC50 HSC-3
Description: as §1

[8] = test system: human oral squamous cell carcinoma HSC-4 cells; assay: Cytotoxicity, MTT method, HSC-4 cells; type: cell-based; details: for CC50: Homo sapiens, HSC-4, 48 h, MTT, mean ± SD, read-out: CC50 HSC-4; for SI (selectivity index) HSC-4: average CC50 non-malignant cells / CC50 HSC-4
Description: as §1

[9] = Cytotoxicity, MTT method, HPLF non-malignant cells; type: cell-based, human; details: human, periodontal ligament fibroblasts (HPLF), non-malignant, mean ± SD
Description: as §1

Row | SMILES | CC50 [1] | SI (selectivity index) HSC-2 [1] | CC50 at 48 h [2] | CC50 [3] | SI (selectivity index) HL-60 [3] | CC50 at 48 h [4] | CC50 [5] | AVE SI [5] | PSE (potency-selectivity expression) [5] | CC50 at 48 h [6] | CC50 [7] | SI (selectivity index) HSC-3 [7] | CC50 [8] | SI (selectivity index) HSC-4 [8] | CC50 at 48 h [9] | CC50 values in all four bioassays (range in words) [5]
1 | O=C1/C(=C/c2ccccc2)CN(C(=O)C(=O)N2C/C(=C\c3ccccc3)C(=O)/C(=C/c3ccccc3)C2)C/C1=C\c1ccccc1 [Compound 2a] | 85 ± 13 nM | 38.4 | 680 ± 73 nM | 110 ± 9 nM | 29.6 | 3260 nM | 140 nM | 26.5 | > 100 | 3800 ± 520 nM | 150 ± 22 nM | 21.7 | 200 ± 11 nM | 16.3 | 5300 ± 500 nM | 
2 | O=C1/C(=C/c2ccc(F)cc2)CN(C(=O)C(=O)N2C/C(=C\c3ccc(F)cc3)C(=O)/C(=C/c3ccc(F)cc3)C2)C/C1=C\c1ccc(F)cc1 [Compound 2b] | 37 ± 9 nM | 40.5 | 1400 ± 110 nM | 37 ± 17 nM | 40.5 | 1500 nM | 40 nM | 37.3 |  | 1200 ± 100 nM | 66 ± 8 nM | 22.7 | 33 ± 9 nM | 45.5 | 1900 ± 360 nM | double-digit nanomolar range
3 | O=C1/C(=C/c2ccc(Cl)c(Cl)c2)CN(C(=O)C(=O)N2C/C(=C\c3ccc(Cl)c(Cl)c3)C(=O)/C(=C/c3ccc(Cl)c(Cl)c3)C2)C/C1=C\c1ccc(Cl)c(Cl)c1 [Compound 2d] | 5900 ± 120 nM | 5.81 | 23000 ± 3100 nM | 8400 ± 17 nM | 4.08 | 34300 nM | 7280 nM | 4.83 |  | 36000 ± 3100 nM | 8400 ± 870 nM | 4.08 | 6400 ± 150 nM | 5.36 | 44000 ± 3200 nM | 
4 | Cc1ccc(/C=C2\CN(C(=O)C(=O)N3C/C(=C\c4ccc(C)cc4)C(=O)/C(=C/c4ccc(C)cc4)C3)C/C(=C\c3ccc(C)cc3)C2=O)cc1 [Compound 2e] | 1800 ± 250 nM | 25.0 | 23000 ± 1200 nM | 2700 ± 780 nM | 16.7 | 45000 nM | 2780 nM | 18.0 |  | 45000 ± 4600 nM | 4300 ± 1100 nM | 10.5 | 2300 ± 250 nM | 19.6 | 67000 ± 4500 nM | 
5 | COc1ccc(/C=C2\CN(C(=O)C(=O)N3C/C(=C\c4ccc(OC)c(OC)c4)C(=O)/C(=C/c4ccc(OC)c(OC)c4)C3)C/C(=C\c3ccc(OC)c(OC)c3)C2=O)cc1OC [Compound 2f] | 420 ± 25 nM | 29.8 | 2400 ± 700 nM | 190 ± 26 nM | 65.8 | 12500 nM | 250 nM | 57.0 |  | 24000 ± 1100 nM | 230 ± 97 nM | 54.4 | 160 ± 24 nM | 78.1 | 11000 ± 980 nM | 
6 | COc1cc(/C=C2\CN(C(=O)C(=O)N3C/C(=C\c4cc(OC)c(OC)c(OC)c4)C(=O)/C(=C/c4cc(OC)c(OC)c(OC)c4)C3)C/C(=C\c3cc(OC)c(OC)c(OC)c3)C2=O)cc(OC)c1OC [Compound 2g] | 63 ± 9 nM | 9.05 | 280 ± 70 nM | 37 ± 2 nM | 15.4 | 570 nM | 60 nM | 11.8 | > 100 | 470 ± 140 nM | 35 ± 6 nM | 16.3 | 88 ± 29 nM | 6.48 | 950 ± 12 nM | double-digit nanomolar range
7 | O=C1/C(=C/c2ccccc2)CN(C(=O)CC(=O)N2C/C(=C\c3ccccc3)C(=O)/C(=C/c3ccccc3)C2)C/C1=C\c1ccccc1 [Compound 3a] | 50 ± 1 nM | 18.4 | 360 ± 100 nM | 46 ± 9 nM | 20.0 | 920 nM | 60 nM | 17.4 |  | 1100 ± 10 nM | 46 ± 26 nM | 20.0 | 84 ± 5 nM | 11.0 | 1300 ± 330 nM | double-digit nanomolar range
8 | Cc1ccc(/C=C2\CN(C(=O)CC(=O)N3C/C(=C\c4ccc(C)cc4)C(=O)/C(=C/c4ccc(C)cc4)C3)C/C(=C\c3ccc(C)cc3)C2=O)cc1 [Compound 3e] | 1600 ± 390 nM | 15.4 | 19000 ± 2700 nM | 1400 ± 150 nM | 17.6 | 24700 nM | 1780 nM | 14.3 |  | 20000 ± 1300 nM | 2200 ± 200 nM | 11.2 | 1900 ± 150 nM | 13.0 | 35000 ± 4200 nM | 
9 | COc1ccc(/C=C2\CN(C(=O)CC(=O)N3C/C(=C\c4ccc(OC)c(OC)c4)C(=O)/C(=C/c4ccc(OC)c(OC)c4)C3)C/C(=C\c3ccc(OC)c(OC)c3)C2=O)cc1OC [Compound 3f] | 340 ± 76 nM | 4.41 | 1600 ± 78 nM | 260 ± 21 nM | 5.77 | 1500 nM | 230 nM | 7.35 |  | 1100 ± 84 nM | 200 ± 140 nM | 7.50 | 128 ± 14 nM | 11.7 | 1800 ± 50 nM | 
10 | COc1cc(/C=C2\CN(C(=O)CC(=O)N3C/C(=C\c4cc(OC)c(OC)c(OC)c4)C(=O)/C(=C/c4cc(OC)c(OC)c(OC)c4)C3)C/C(=C\c3cc(OC)c(OC)c(OC)c3)C2=O)cc(OC)c1OC [Compound 3g] | 65 ± 16 nM | 2.92 | 180 ± 30 nM | 30 ± 0.2 nM | 6.33 | 190 nM | 40 nM | 4.92 | > 100 | 93 ± 20 nM | 35 ± 5 nM | 5.43 | 38 ± 9 nM | 5.00 | 300 ± 47 nM | double-digit nanomolar range
11 | O=C1/C(=C/c2ccccc2)CN(CCCN2C/C(=C\c3ccccc3)C(=O)/C(=C/c3ccccc3)C2)C/C1=C\c1ccccc1 [Compound 4] | 210 ± 32 nM | 19.1 | 3700 ± 2000 nM | 180 ± 11 nM | 22.2 | 4000 nM | 210 nM | 25.2 | > 100 | 3000 ± 210 nM | 350 ± 110 nM | 11.4 | 83 ± 21 nM | 48.2 | 5300 ± 610 nM | 
